{
  "source": "paper PMC12383012",
  "about": "(Antioxidants, 2025)",
  "key": {"[1]": {"biological_target": "T1, equine butyrylcholinesterase (eqBChE) (Equus caballus, UniProt P81908)", "T1 construct": "purchased", "T1 sequence (P81908 whole entry)": "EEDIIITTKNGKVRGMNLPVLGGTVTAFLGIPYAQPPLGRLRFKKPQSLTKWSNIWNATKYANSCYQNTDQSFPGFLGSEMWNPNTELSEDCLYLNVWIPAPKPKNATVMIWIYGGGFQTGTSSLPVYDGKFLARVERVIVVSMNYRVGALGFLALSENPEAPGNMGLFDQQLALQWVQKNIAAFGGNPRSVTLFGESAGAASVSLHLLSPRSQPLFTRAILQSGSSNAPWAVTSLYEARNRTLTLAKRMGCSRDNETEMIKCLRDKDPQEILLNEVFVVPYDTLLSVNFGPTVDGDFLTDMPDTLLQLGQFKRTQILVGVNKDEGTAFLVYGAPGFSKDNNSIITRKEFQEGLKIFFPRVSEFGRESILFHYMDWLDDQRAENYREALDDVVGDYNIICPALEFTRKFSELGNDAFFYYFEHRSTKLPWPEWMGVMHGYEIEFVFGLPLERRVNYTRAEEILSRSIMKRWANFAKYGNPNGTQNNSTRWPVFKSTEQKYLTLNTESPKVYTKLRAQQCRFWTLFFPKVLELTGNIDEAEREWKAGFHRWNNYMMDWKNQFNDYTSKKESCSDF", "experiment": "Butyrylcholinesterase inhibition (adapted Ellman's method)", "format": "biochemical", "protocol": "(§1) The enzyme inhibition of electric eel acetylcholinesterase (eeAChE) and equine butyrylcholinesterase (eqBChE) was performed according to an adaptation of Elmman’s method. Stock solutions of 1 mg of each compound in 1 mL MeOH were prepared, and adequate dilutions were further made for each ligand. A control measurement (5 replicates without a ligand) and a calibration curve of 5 points with 3 replicates per point were conducted. Each solution included fixed volumes of 4-(2-hydroxyethyl)-1-piperazine-ethanesulfonic acid (HEPES) and cholinesterase (eeAChE or eqBChE), with different volumes of ligand solution. A blank solution containing HEPES and MeOH was also prepared at the same time. After 15 min of reaction, […] (AChI) or butyrylcholine iodide (BChI) and 5,5’-dithiobis-(2-nitrobenzoic acid) (DTNB) were added to both solutions contained in spectrophotometer cuvettes, and the absorbance at 405 nm was recorded for 5 min (time interval = 1 s, slid width = 1 nm). The slope for each calibration point (absorbance versus reaction time) was determined, and the percent inhibition was calculated by using the equation: %Inhibition=100−(vi/v0×100). where vi is the reaction rate (slope) for each point of the calibration with the ligand, and v0 is the initial reaction rate (slope) for the control point (without ligand). Finally, the five-point linear regression (10–50 µL of ligand solution) corresponding to the percentage of enzyme inhibition vs. the compound concentration allowed for the determination of the half maximal inhibitory concentration (IC50, µM) (compound concentration for which enzyme activity is reduced to half). Experiments were performed twice for each ligand. Statistical analysis was performed by a one-way analysis of variance (ANOVA) with a significance threshold set at p < 0.05."}, "[2]": {"experiment": "Free-radical-scavenging assay (DPPH method)", "protocol": "The percentage of radical-scavenging activity (%AA, antioxidant capacity) of the RIV hybrids was first determined by the 2,2-diphenyl-1-picrylhydrazyl (DPPH) method using a compound concentration of 100 μM. […] Each calibration point was kept 30 min in darkness, and afterwards, the absorbance was measured at 517 nm. The corresponding antioxidant activity (%AA) was calculated using the equation %AA=ADPPH−Aligand/ADPPH×100. From the plot of %AA versus ligand concentration, EC50 was determined. Three independent experiments were performed, and a statistical analysis was conducted by a one-way analysis of variance (ANOVA) with the significance threshold set at p < 0.05.\nThe RIV hybrids were screened for their radical-scavenging activity by using the DPPH method. These assays were conducted in two stages: first, preliminary analyses were performed for all the compounds to evaluate the percentage of radical-scavenging activity by using a compound concentration of 100 μM. Afterwards, the compounds showing more than 50% antioxidant activity (AA), under those conditions, were further assessed to evaluate the respective EC50 values."}, "Aβ1–42": {"biological_target": "T2, Aβ1–42 (Homo sapiens, UniProt P05067)", "T2 construct": "the Aβ1–42 peptide (Shanghai Royobiotech Co., Ltd., Shanghai, China); purchased Shanghai Royobiotech Co., Ltd", "T2 sequence (P05067 672-713)": "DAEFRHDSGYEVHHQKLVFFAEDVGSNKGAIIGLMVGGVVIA", "experiment": "Inhibition of Aβ1–42 self-aggregation (ThT fluorescence)", "format": "biochemical", "details": "read-out: % Aβ42 Self-Agg Inhib", "protocol": "Firstly, the Aβ1–42 peptide (Shanghai Royobiotech Co., Ltd., Shanghai, China) was treated with 1,1,1,3,3,3-hexafluoropropan-2-ol (HFIP) and then dissolved in a CH3CN/Na2CO3 (300 μM)/NaOH (250 μM) (48.3:48.3:4.3, v/v/v) mixture in order to obtain a stable stock solution (500 μM).\nSolutions of 1 mg of the assayed compounds in 2 mL of 1:1 (v/v) DMSO/MeOH (0.5 mg/mL) medium were prepared and then properly diluted with phosphate buffer (0.215 M, pH 8.0) to obtain a 120 μM final concentration. The Aβ1–42 self-aggregation inhibition assays were made based on a reported method, involving the fluorescence emission of thioflavin T (ThT). So, Aβ1–42 (40 μM) was incubated at 37 °C for 24 h in phosphate buffer and in the presence or absence of each ligand (40 μM for all compounds but 4AY4 and 4CY1, for which 20 μM was used). Then, […] 5 μM ThT in 50 mM glycine-NaOH (pH 8.5) buffer were added to each sample before transferring the samples to a 96-well microplate. Blank samples were also prepared without Aβ1–42. The ThT fluorescence was measured (446 and 485 nm excitation and emission wavelengths, respectively), and the percent of self-aggregation inhibition was determined by the equation:I% = 100 − (IFi/IF0 × 100) where IFi and IF0 are the fluorescence intensities, in the presence and the absence of the assayed compound, subtracted from the fluorescence intensities due to the respective blanks. The calculated values were obtained as the mean ± SEM of four different experiments conducted in duplicate. Statistical analysis was performed by a one-way analysis of variance (ANOVA) with a significance threshold set at p < 0.05."}, "[3]": {"system": "SH-SY5Y human neuroblastoma cell line", "experiment": "Protection against iron/ascorbate-induced toxicity (MTT)", "format": "cell-based", "details": "1 h pre-treatment at highest nontoxic concentration, then 24 h with Fe/Asc", "protocol": "(§2) Cell viability was assessed using the colorimetric MTT (3-(4,5-dimethylthiazol-2-yl)-2,5-diphenyltetrazolium bromide) assay, as previously described.\n(§3) The compounds’ solutions (4AY1-6, 4BY1-3, and 4CY1) were prepared in DMSO to create stock solutions at a concentration of 25 mM, which were then stored at −20 °C. A concentration range from 0.5 µM to 20 µM was screened to identify the highest non-toxic dose. The SH-SY5Y human neuroblastoma cell line (ATCC-CRL-2266) was grown in Dulbecco’s modified Eagle’s medium (DMEM) (Thermo Fisher Scientific-Gibco, Waltham, MA, USA) supplemented with 10% heat-inactivated fetal calf serum, 50 U/mL penicillin, and 50 µg/mL streptomycin at 37 °C in a 5% CO2 atmosphere. The cells were seeded at a density of 0.1 × 10^6 cells/mL (when 48-well plates were used) or 0.15 × 10^6 cells/mL (when 24-well plates were used) one day before the experiment commenced. Following the seeding, the cells were treated with the selected concentrations of compounds for 24 h. After treatment, the cells were washed with PBS and incubated with 150 µL (in 48-well plates) or 200 µL (in 24-well plates) of MTT (0.5 mg/mL) for 2 h at 37 °C with 5% CO2. During this incubation, cellular dehydrogenases converted MTT into formazan crystals, which were subsequently dissolved in 150 µL (in 48-well plates) or 200 µL (in 24-well plates) of 0.04 M HCl/isopropanol, and the absorbance was measured at 570 nm.\nTo evaluate the compounds’ protective effects against toxicity induced by Aβ1–42 or iron/ascorbate, the cells were pre-treated with each compound for one hour before adding Aβ1–42 or iron/ascorbate, followed by an additional 24-h incubation. Aβ1–42 (Bachem, Torrance, CA, USA) was prepared in sterile water to create a 443 µM stock solution and was added to the cells at a final concentration of 1 µM. Ferrous sulfate and L-ascorbic acid (Sigma Chemical Co., St. Louis, MO, USA) were introduced into the medium at final concentrations of 5 mM and 2.5 mM, respectively. […]"}, "[4]": {"system": "SH-SY5Y human neuroblastoma cell line", "experiment": "Cell viability dose-response screening (MTT)", "format": "cell-based", "details": "24 h", "protocol": "as §2, §3"}, "[5]": {"biological_target": "T3, electric eel acetylcholinesterase (eeAChE) (Electrophorus electricus, UniProt O42275)", "T3 construct": "purchased", "T3 sequence (O42275 24-633)": "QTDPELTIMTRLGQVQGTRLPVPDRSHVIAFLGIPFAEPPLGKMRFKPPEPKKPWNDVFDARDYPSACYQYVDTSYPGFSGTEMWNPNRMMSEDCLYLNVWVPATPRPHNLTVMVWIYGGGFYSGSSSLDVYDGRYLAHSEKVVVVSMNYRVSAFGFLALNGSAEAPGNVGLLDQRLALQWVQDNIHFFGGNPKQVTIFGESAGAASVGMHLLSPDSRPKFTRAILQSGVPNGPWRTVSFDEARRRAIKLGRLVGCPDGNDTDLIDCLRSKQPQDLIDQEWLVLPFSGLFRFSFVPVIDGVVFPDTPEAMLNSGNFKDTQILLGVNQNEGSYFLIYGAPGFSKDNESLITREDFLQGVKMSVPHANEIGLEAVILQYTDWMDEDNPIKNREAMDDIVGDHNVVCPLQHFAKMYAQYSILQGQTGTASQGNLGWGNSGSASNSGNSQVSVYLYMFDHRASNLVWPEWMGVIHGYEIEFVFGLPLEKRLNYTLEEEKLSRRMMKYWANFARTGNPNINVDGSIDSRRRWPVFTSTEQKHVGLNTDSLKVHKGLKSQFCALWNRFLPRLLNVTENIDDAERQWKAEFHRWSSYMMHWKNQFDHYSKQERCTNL", "experiment": "Acetylcholinesterase inhibition (adapted Ellman's method)", "format": "biochemical", "details": "read-out: AChE Inhib IC50", "protocol": "as §1"}, "[6]": {"details": "radical scavenging, parent acid; read-out: AA EC50; cited from earlier work"}},
  "note": "Entries after “also recorded” stand apart in the source; their conditions may differ. Read-outs that look alike come from different tables or passages of the source.",
  "data": [
    {"smiles": "CCN(C)C(=O)Oc1cccc(CNC(=O)C2(C)CCc3c(C)c(O)c(C)c(C)c3O2)c1", "note": "(stereo not shown) [4BY2, 3-((6-Hydroxy-2,5,7,8-tetramethylchromane-2-carboxamido)methyl)phenyl ethyl(methyl)carbamate]", "values": [
      {"measurement": "SI (selectivity index)", "setting": "[1]; SI = IC50 (AChE)/IC50 (BChE)", "result": 8.6},
      {"measurement": "IC50", "setting": "[1]; eqBChE, read-out: BChE Inhib IC50", "result": "3.7 ± 0.1", "unit": "µM"},
      {"measurement": "% AA (radical-scavenging activity)", "setting": "[2]; compound concentration 100 μM", "result": "93.9 ± 0.4", "unit": "%"},
      {"measurement": "EC50", "setting": "[2]; read-out: AA EC50", "result": "20 ± 0.8", "unit": "µM"},
      {"measurement": "inhibition at 40 µM", "setting": "Aβ1–42", "result": "47 ± 3", "unit": "%"},
      {"measurement": "rescue of cell viability after iron/ascorbate treatment", "setting": "[3]", "result": "capable of rescuing the cell viability; also recorded: significantly improved cell viability"},
      {"measurement": "highest nontoxic concentration", "setting": "[4]", "result": 1, "unit": "µM"},
      {"measurement": "IC50", "setting": "[5]", "result": "32 ± 2", "unit": "µM"}
    ]},
    {"smiles": "O=C(O)/C=C/C=C/c1ccc(O)c(O)c1", "note": "[(2E,4E)-5-(3,4-dihydroxyphenyl)penta-2,4-dienoic acid]", "values": [
      {"measurement": "EC50", "setting": "[6]", "result": "18.2 ± 0.2", "unit": "µM"}
    ]},
    {"smiles": "O=C(O)C=Cc1ccc(O)c(O)c1", "note": "[caffeic acid, 3,4-dihydroxycinnamic acid]", "values": [
      {"measurement": "EC50", "setting": "[6]", "result": "21.7 ± 0.2", "unit": "µM"}
    ]}
  ]
}
